What all share (experiment): kinome screen (33PanQinase)
Holding throughout (format): biochemical

The target of one assay is T1, CDK12/CycK (Homo sapiens, UniProt Q9NYV4).
T1 construct: purchased Reaction Biology Europe GmbH (formerly ProQinase)
On the procedure:
(§1) The Kinome Screening was performed by Reaction Biology Europe GmbH (http://reactionbiology.com; Freiburg i. Br., Germany).

For a further assay, the target named is T2, EPHB4 (Homo sapiens, UniProt P54760).
T2 construct: purchased Reaction Biology Europe GmbH (formerly ProQinase)
T2 sequence (P54760 16-987): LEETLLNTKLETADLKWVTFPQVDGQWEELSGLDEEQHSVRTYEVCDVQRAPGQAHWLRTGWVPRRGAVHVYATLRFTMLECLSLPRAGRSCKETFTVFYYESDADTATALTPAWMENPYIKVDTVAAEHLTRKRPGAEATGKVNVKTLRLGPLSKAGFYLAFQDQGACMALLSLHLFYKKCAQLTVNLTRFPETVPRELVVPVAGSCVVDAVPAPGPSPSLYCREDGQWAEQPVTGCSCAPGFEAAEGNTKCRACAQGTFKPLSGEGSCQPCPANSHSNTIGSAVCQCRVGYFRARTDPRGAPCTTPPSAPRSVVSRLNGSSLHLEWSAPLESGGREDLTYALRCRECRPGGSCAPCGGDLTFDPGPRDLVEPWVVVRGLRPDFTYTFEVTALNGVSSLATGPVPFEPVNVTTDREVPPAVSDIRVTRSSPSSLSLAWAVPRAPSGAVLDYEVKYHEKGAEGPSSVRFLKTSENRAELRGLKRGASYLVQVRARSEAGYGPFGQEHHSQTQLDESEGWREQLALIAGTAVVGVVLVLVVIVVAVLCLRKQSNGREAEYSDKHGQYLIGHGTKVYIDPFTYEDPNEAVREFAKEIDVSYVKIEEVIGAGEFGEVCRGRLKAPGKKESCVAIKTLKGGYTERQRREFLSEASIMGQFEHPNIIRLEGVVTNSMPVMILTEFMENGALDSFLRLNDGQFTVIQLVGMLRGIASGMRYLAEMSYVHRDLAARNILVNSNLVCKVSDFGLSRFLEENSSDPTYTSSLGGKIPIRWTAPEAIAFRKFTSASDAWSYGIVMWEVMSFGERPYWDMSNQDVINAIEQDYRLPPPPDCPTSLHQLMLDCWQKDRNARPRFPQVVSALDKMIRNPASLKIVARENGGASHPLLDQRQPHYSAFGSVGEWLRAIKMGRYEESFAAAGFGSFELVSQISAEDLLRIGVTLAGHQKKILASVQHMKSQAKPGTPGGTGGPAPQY
On the procedure: as §1

Another assay addresses T3, FGFR3 (Homo sapiens, UniProt P22607).
T3 construct: purchased Reaction Biology Europe GmbH (formerly ProQinase)
On the procedure:
as §1

A further assay has as its target T4, FRK (Homo sapiens, UniProt P42685).
T4 construct: purchased Reaction Biology Europe GmbH (formerly ProQinase)
The method, then: as §1

For a further assay, the target named is T5, GSK3β (Homo sapiens, UniProt P49841).
T5 construct: purchased Reaction Biology Europe GmbH (formerly ProQinase)
T5 sequence (P49841 whole entry): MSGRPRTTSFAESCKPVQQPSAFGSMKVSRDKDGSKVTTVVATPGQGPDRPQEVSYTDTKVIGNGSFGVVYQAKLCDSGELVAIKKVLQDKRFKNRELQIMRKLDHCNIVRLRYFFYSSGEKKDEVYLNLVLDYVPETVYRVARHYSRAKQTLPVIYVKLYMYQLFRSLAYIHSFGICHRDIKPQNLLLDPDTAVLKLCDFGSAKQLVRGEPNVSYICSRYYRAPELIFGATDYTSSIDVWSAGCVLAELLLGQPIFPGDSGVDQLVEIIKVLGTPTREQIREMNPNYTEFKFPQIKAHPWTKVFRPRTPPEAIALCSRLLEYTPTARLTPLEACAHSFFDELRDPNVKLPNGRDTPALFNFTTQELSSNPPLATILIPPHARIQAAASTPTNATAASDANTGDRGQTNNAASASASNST
The method, then:
as §1

For a further assay, the target named is T6, JNK1 (Homo sapiens, UniProt P45983).
T6 construct: purchased Reaction Biology Europe GmbH (formerly ProQinase)
T6 sequence (P45983 whole entry): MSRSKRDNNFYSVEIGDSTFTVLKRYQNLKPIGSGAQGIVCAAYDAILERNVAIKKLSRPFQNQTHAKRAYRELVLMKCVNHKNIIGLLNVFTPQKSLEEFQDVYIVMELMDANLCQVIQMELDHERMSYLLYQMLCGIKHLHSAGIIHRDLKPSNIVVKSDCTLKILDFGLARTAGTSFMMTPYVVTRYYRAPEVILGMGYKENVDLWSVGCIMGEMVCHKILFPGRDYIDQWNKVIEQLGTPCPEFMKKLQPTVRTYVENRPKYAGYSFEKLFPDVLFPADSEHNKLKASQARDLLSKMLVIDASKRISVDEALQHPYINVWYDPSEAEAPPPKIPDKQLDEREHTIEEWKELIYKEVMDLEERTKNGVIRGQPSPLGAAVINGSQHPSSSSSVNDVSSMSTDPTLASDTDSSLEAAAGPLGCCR
On the procedure:
as §1

A further assay addresses T7, NEK11 (Homo sapiens, UniProt Q8NG66).
T7 construct: purchased Reaction Biology Europe GmbH (formerly ProQinase)
T7 sequence (Q8NG66 1-645): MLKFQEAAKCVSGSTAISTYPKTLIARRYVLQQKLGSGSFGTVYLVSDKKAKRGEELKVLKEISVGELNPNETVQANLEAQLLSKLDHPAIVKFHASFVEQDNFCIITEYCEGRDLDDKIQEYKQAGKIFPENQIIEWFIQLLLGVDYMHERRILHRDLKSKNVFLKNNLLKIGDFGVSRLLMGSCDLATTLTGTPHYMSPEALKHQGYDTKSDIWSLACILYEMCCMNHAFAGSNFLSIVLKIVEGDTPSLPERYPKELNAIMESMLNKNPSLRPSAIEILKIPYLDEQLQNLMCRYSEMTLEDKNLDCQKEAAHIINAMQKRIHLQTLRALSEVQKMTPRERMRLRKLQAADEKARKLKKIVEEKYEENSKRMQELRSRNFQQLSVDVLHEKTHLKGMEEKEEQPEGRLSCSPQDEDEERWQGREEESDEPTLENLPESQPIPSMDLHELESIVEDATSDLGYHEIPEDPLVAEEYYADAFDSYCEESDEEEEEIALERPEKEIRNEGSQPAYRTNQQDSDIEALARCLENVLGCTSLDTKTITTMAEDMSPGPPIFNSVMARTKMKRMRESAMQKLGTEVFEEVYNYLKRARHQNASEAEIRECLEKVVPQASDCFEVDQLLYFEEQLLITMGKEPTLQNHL
On the procedure: as §1

For another assay, the target named is T8, PRK1 (Homo sapiens, UniProt Q16512).
T8 construct: purchased Reaction Biology Europe GmbH (formerly ProQinase)
The method, then: as §1

Another assay addresses T9, STK39 (Homo sapiens, UniProt Q9UEW8).
T9 construct: purchased Reaction Biology Europe GmbH (formerly ProQinase)
On the procedure:
as §1

The next assay addresses T10, VEGFR2 (Homo sapiens, UniProt P35968).
T10 construct: purchased Reaction Biology Europe GmbH (formerly ProQinase)
On the procedure:
as §1

The next assay has as its target T11, ZAP70 (Homo sapiens, UniProt P43403).
T11 construct: purchased Reaction Biology Europe GmbH (formerly ProQinase)
T11 sequence (P43403 1-619): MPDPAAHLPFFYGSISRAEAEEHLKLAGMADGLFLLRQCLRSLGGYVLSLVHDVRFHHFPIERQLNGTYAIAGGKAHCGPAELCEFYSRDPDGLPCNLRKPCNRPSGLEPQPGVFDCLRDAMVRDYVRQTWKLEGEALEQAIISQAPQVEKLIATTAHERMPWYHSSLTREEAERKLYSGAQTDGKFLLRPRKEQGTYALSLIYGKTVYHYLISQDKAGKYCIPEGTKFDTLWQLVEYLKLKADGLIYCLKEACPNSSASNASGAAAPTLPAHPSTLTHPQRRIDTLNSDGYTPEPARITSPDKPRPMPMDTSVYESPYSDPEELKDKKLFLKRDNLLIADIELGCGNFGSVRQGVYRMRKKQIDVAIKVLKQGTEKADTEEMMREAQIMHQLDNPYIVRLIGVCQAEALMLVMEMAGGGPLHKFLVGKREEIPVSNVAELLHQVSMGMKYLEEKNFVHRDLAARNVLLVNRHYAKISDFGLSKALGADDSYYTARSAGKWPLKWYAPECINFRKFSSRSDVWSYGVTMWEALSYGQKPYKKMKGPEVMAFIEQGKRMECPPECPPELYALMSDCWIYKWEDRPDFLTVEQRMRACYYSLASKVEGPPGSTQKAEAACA
On the procedure: as §1

T1 sequence (Q9NYV4 whole entry): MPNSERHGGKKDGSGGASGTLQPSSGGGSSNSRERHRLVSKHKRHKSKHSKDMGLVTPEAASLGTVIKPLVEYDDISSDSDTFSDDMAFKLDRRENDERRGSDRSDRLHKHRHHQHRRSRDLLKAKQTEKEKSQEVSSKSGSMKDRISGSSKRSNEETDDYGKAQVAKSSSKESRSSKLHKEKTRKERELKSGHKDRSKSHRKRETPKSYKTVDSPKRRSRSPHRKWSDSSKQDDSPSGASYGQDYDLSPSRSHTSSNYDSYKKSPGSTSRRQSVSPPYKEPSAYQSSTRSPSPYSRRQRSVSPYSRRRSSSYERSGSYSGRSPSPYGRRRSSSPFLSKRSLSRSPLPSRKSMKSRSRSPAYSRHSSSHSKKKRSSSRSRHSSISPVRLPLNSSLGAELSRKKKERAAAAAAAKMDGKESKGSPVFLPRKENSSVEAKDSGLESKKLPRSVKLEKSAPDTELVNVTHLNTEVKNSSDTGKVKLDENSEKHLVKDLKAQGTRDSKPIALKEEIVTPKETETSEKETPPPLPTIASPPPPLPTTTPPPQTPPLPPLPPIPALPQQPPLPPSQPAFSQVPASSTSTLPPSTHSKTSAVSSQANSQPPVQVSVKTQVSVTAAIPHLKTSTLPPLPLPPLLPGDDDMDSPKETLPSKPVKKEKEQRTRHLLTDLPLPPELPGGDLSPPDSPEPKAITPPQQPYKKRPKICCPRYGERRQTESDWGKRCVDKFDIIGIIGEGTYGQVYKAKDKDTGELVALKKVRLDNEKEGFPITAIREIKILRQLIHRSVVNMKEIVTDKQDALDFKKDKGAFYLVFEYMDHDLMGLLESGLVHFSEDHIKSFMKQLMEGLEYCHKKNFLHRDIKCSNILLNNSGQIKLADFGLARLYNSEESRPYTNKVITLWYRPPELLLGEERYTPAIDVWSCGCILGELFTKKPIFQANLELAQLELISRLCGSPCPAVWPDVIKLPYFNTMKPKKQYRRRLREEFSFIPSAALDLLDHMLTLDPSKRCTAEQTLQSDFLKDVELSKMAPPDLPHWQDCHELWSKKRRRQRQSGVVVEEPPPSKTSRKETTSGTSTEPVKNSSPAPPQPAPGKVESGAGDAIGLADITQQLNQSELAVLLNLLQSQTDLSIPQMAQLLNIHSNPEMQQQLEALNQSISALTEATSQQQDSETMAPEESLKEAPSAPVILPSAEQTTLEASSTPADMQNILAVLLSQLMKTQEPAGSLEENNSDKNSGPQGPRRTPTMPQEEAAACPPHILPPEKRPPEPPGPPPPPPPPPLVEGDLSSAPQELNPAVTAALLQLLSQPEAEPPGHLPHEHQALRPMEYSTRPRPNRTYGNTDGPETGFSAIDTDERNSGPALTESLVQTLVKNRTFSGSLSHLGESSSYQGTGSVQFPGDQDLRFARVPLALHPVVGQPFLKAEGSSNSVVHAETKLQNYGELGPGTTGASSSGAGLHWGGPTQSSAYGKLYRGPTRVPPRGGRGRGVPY
T1 sequence (O75909 whole entry partner): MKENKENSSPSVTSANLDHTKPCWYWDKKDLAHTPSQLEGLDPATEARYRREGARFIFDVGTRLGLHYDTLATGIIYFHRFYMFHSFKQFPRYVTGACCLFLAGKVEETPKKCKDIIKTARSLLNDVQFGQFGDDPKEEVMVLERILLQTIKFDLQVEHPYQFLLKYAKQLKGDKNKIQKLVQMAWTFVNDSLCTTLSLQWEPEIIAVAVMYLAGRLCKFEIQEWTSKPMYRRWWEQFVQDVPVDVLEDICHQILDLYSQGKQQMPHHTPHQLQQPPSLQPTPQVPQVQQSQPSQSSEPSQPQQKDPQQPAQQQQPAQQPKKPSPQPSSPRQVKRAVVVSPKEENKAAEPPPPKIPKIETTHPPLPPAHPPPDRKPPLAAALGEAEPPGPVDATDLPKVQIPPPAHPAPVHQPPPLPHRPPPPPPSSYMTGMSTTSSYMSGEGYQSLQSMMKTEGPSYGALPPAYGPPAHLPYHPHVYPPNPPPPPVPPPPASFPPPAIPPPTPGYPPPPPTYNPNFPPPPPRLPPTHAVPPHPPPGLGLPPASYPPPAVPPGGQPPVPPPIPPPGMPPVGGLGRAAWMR
T3 sequence (P22607 23-806): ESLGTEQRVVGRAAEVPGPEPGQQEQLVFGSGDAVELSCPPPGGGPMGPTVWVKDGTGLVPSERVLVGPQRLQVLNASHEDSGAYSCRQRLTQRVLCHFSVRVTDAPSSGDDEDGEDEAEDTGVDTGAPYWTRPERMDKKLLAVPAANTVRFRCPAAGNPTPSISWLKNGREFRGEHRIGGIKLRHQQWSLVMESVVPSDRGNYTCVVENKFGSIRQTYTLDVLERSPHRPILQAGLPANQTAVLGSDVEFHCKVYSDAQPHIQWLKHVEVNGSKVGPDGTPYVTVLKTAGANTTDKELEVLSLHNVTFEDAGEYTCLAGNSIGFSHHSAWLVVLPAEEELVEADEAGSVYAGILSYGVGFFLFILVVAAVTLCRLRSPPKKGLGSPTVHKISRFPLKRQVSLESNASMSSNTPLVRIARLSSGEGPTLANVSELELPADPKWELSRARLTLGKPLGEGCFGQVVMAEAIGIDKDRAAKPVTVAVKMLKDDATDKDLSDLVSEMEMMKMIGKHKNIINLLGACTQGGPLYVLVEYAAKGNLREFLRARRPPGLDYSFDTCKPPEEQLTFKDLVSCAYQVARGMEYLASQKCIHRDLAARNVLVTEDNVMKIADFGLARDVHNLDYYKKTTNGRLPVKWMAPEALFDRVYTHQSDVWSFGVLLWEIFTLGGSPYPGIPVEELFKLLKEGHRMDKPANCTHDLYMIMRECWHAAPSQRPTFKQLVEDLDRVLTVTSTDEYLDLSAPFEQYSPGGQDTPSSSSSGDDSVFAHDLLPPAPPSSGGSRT
T4 sequence (P42685 whole entry): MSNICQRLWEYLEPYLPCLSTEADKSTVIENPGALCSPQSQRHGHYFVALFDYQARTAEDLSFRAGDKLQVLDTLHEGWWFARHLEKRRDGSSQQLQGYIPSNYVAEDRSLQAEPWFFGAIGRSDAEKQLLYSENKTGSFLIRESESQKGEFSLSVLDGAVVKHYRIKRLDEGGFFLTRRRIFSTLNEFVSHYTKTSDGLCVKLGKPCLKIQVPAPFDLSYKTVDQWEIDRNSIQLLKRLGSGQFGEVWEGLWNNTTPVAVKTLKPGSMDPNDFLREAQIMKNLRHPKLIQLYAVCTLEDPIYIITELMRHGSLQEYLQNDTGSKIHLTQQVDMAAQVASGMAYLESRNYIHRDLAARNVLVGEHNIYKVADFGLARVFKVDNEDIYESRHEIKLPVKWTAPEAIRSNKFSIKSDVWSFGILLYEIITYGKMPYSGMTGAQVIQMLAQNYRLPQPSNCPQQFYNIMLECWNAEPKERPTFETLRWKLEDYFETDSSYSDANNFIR

For the compound `c1ccc(CNc2cc(-c3c[nH]c4ncccc34)ccn2)cc1` [meriolin 36], the residual kinase activity at CDK12/CycK (0.3 µM) is given as 1 % of control; at CDK12/CycK (3 µM), 2 % of control; on EPHB4 (0.3 µM) it was 110 % of control; on EPHB4 (3 µM), 85 % of control; on FGFR3 (0.3 µM), 64 % of control; on FGFR3 (3 µM) it was 20 % of control. Besides, the residual kinase activity on FRK (0.3 µM) is 54 % of control; on FRK (3 µM), 16 % of control; on GSK3β (0.3 µM), 18 % of control; on GSK3β (3 µM), 2 % of control; on JNK1 (0.3 µM), 74 % of control; on JNK1 (3 µM), 23 % of control. Further, the residual kinase activity is on record as 105 % of control on NEK11 (0.3 µM); 85 % of control on NEK11 (3 µM); 17 % of control at PRK1 (0.3 µM); 3 % of control on PRK1 (3 µM); 40 % of control on STK39 (0.3 µM); 19 % of control on STK39 (3 µM). The residual kinase activity on VEGFR2 (0.3 µM) is on record as 60 % of control; at VEGFR2 (3 µM), 19 % of control; at ZAP70 (0.3 µM), 110 % of control; at ZAP70 (3 µM) it was 85 % of control.

Consider `COc1ccnc2[nH]cc(-c3cc(N)nc(N)c3)c12` [meriolin 16], for which the residual kinase activity at CDK12/CycK (0.03 µM) was 21 % of control; on CDK12/CycK (0.3 µM), 1 % of control; on EPHB4 (0.03 µM), 97 % of control; at EPHB4 (0.3 µM) it was 90 % of control; on FGFR3 (0.03 µM), 93 % of control; on FGFR3 (0.3 µM) it was 84 % of control. In addition, the residual kinase activity on FRK (0.03 µM) was 103 % of control; at FRK (0.3 µM), 99 % of control; at GSK3β (0.03 µM), 80 % of control; at GSK3β (0.3 µM) it was 66 % of control; at JNK1 (0.03 µM), 102 % of control; at JNK1 (0.3 µM), 95 % of control. The residual kinase activity at NEK11 (0.03 µM) is on record as 97 % of control; at NEK11 (0.3 µM), 87 % of control; on PRK1 (0.03 µM) it was 84 % of control; at PRK1 (0.3 µM), 35 % of control; on STK39 (0.03 µM) it was 77 % of control; on STK39 (0.3 µM) it was 66 % of control. The residual kinase activity at VEGFR2 (0.03 µM) is reported as 102 % of control; at VEGFR2 (0.3 µM) it was 98 % of control; at ZAP70 (0.03 µM) it was 95 % of control; at ZAP70 (0.3 µM) it was 83 % of control.
